How the values were obtained:
HuM2e antibody 23K12 = format: binding, human
[1] = test system: anti-M2 human monoclonal antibody Z3G1; format: binding

611 (SLLTEVETRIRNEWGCRCNDSSD; epitope peptide) [compound 611]
Signal (peptides that bind to 23K21 and 8I10) (HuM2e antibody 23K12): 813 | Signal (peptides that show specific binding to Z3G1) [1]: 2159

289 (MSLCTEVGMSLCTEV; epitope peptide) [compound 289]
Signal (peptides that bind to 23K21 and 8I10) (HuM2e antibody 23K12): 2153 | Signal (peptides that bind to Z3G1) [1]: 1093

447 (SLLTEVETPIRNEWGCRCNDS; epitope peptide) [compound 447]
Signal (peptides that bind to 23K21 and 8I10) (HuM2e antibody 23K12): 817 | Signal (peptides that bind to Z3G1) [1]: 2348

720 (SLLTEVETPIINEWGCRCNDSSD; epitope peptide) [compound 720]
Signal (peptides that bind to 23K21 and 8I10) (HuM2e antibody 23K12): 699 | Signal (peptides that show specific binding to Z3G1) [1]: 2262

328 (SLETEVETPIRNEWGCRCNDSSD; epitope peptide) [compound 328]
Signal (peptides that bind to 23K21 and 8I10) (HuM2e antibody 23K12): 1720 | Signal (peptides that show specific binding to Z3G1) [1]: 1963

503 (SLLTEVETPIRNEWGCWCNDSSD; epitope peptide) [compound 503]
Signal (peptides that bind to 23K21 and 8I10) (HuM2e antibody 23K12): 1061 | Signal (peptides that show specific binding to Z3G1) [1]: 2437

719 (SLLTEVETPIRNEWGCTCNDSSD; epitope peptide) [compound 719]
Signal (peptides that bind to 23K21 and 8I10) (HuM2e antibody 23K12): 700 | Signal (peptides that show specific binding to Z3G1) [1]: 2347

339 (MSLLTECGMSLLTEV; epitope peptide) [compound 339]
Signal (peptides that bind to 23K21 and 8I10) (HuM2e antibody 23K12): 1658 | Signal (peptides that bind to Z3G1) [1]: 2170

706 (SLLTEVETPIRNEWGCRCADSSD; epitope peptide) [compound 706]
Signal (peptides that bind to 23K21 and 8I10) (HuM2e antibody 23K12): 712 | Signal (peptides that bind to Z3G1) [1]: 2329

476 (CSLLTEVGCSCLCEV; epitope peptide) [compound 476]
Signal (peptides that bind to 23K21 and 8I10) (HuM2e antibody 23K12): 1206 | Signal (peptides that bind to Z3G1) [1]: 1680

639 (SLLTEVETPIRNEWGCFCNDSSD; epitope peptide) [compound 639]
Signal (peptides that bind to 23K21 and 8I10) (HuM2e antibody 23K12): 767 | Signal (peptides that show specific binding to Z3G1) [1]: 2312

528 (MSLLTCVGCSLLTEV; epitope peptide) [compound 528]
Signal (peptides that bind to 23K21 and 8I10) (HuM2e antibody 23K12): 978 | Signal (peptides that bind to Z3G1) [1]: 2467

223 (CVETPIRNEWGSRSNDCSLLTEVETC; epitope peptide) [compound 223]
Signal (peptides that bind to 23K21 and 8I10) (HuM2e antibody 23K12): 905 | Signal (peptides that show specific binding to Z3G1) [1]: 2233

410 (SLLTEVETPIRNEWGCRCNDLSD; epitope peptide) [compound 410]
Signal (peptides that bind to 23K21 and 8I10) (HuM2e antibody 23K12): 769 | Signal (peptides that bind to Z3G1) [1]: 2494

701 (SLLTEVETPIRNEWGCKCNDSSD; epitope peptide) [compound 701]
Signal (peptides that bind to 23K21 and 8I10) (HuM2e antibody 23K12): 715 | Signal (peptides that show specific binding to Z3G1) [1]: 2290

285 (MSLLTEVGMSLLTCV; epitope peptide) [compound 285]
Signal (peptides that bind to 23K21 and 8I10) (HuM2e antibody 23K12): 2389 | Signal (peptides that bind to Z3G1) [1]: 2872

546 (SLLTEVETPIRNRWGCRCNDSSD; epitope peptide) [compound 546]
Signal (peptides that bind to 23K21 and 8I10) (HuM2e antibody 23K12): 921 | Signal (peptides that show specific binding to Z3G1) [1]: 2257

433 (SLLTEVETPIRNEWGCRCNDSWD; epitope peptide) [compound 433]
Signal (peptides that bind to 23K21 and 8I10) (HuM2e antibody 23K12): 971 | Signal (peptides that bind to Z3G1) [1]: 2477

399 (SLLTEVETPIRNEWGCRCNTSSD; epitope peptide) [compound 399]
Signal (peptides that bind to 23K21 and 8I10) (HuM2e antibody 23K12): 795 | Signal (peptides that bind to Z3G1) [1]: 2483

385 (CSLLTEVGCLCTCV; epitope peptide) [compound 385]
Signal (peptides that bind to 23K21 and 8I10) (HuM2e antibody 23K12): 1375 | Signal (peptides that show specific binding to Z3G1) [1]: 2474

456 (CSLLTECGMSLLCEV; epitope peptide) [compound 456]
Signal (peptides that bind to 23K21 and 8I10) (HuM2e antibody 23K12): 1294 | Signal (peptides that bind to Z3G1) [1]: 1640

396 (SLLTEVETPIRNEWGCRCNPSSD; epitope peptide) [compound 396]
Signal (peptides that bind to 23K21 and 8I10) (HuM2e antibody 23K12): 849 | Signal (peptides that bind to Z3G1) [1]: 2445

403 (SLLTEVETPIRNEWGCRCNDCSD; epitope peptide) [compound 403]
Signal (peptides that bind to 23K21 and 8I10) (HuM2e antibody 23K12): 772 | Signal (peptides that bind to Z3G1) [1]: 2318

213 (CETPIRNEWGSRSNDSCSLLTEVETC; epitope peptide) [compound 213]
Signal (peptides that bind to 23K21 and 8I10) (HuM2e antibody 23K12): 971 | Signal (peptides that show specific binding to Z3G1) [1]: 1997

336 (SLLCEVGSLLTEV; epitope peptide) [compound 336]
Signal (peptides that bind to 23K21 and 8I10) (HuM2e antibody 23K12): 1674 | Signal (peptides that show specific binding to Z3G1) [1]: 2475

417 (SLLTEVETPIRNEWGCRCNDVSD; epitope peptide) [compound 417]
Signal (peptides that bind to 23K21 and 8I10) (HuM2e antibody 23K12): 772 | Signal (peptides that bind to Z3G1) [1]: 2389

395 (SLLTEVETPIRNEWGCRCNNSSD; epitope peptide) [compound 395]
Signal (peptides that bind to 23K21 and 8I10) (HuM2e antibody 23K12): 926 | Signal (peptides that bind to Z3G1) [1]: 2502

637 (SLLTEVETPIRNENGCRCNDSSD; epitope peptide) [compound 637]
Signal (peptides that bind to 23K21 and 8I10) (HuM2e antibody 23K12): 768 | Signal (peptides that show specific binding to Z3G1) [1]: 2265

627 (SLLTEVETPIRIEWGCRCNDSSD; epitope peptide) [compound 627]
Signal (peptides that bind to 23K21 and 8I10) (HuM2e antibody 23K12): 789 | Signal (peptides that show specific binding to Z3G1) [1]: 2444

708 (SLLTEVETPIRNEGGCRCNDSSD; epitope peptide) [compound 708]
Signal (peptides that bind to 23K21 and 8I10) (HuM2e antibody 23K12): 708 | Signal (peptides that show specific binding to Z3G1) [1]: 2486

545 (SLLTEVSTPIRNEWGCRCNDSSD; epitope peptide) [compound 545]
Signal (peptides that bind to 23K21 and 8I10) (HuM2e antibody 23K12): 923 | Signal (peptides that show specific binding to Z3G1) [1]: 2288

440 (SLLTEVETPIRNEW; epitope peptide) [compound 440]
Signal (peptides that bind to 23K21 and 8I10) (HuM2e antibody 23K12): 750 | Signal (peptides that bind to Z3G1) [1]: 2334

314 (SLLTEVGSLLCEV; epitope peptide) [compound 314]
Signal (peptides that bind to 23K21 and 8I10) (HuM2e antibody 23K12): 1834 | Signal (peptides that show specific binding to Z3G1) [1]: 2392

681 (SLLTEVETPIRNEWACRCNDSSD; epitope peptide) [compound 681]
Signal (peptides that bind to 23K21 and 8I10) (HuM2e antibody 23K12): 729 | Signal (peptides that show specific binding to Z3G1) [1]: 2431

552 (SLLTEVETPIRNEWGCYCNDSSD; epitope peptide) [compound 552]
Signal (peptides that bind to 23K21 and 8I10) (HuM2e antibody 23K12): 913 | Signal (peptides that show specific binding to Z3G1) [1]: 2397

445 (SLLTEVETPIRNEWGCRCN; epitope peptide) [compound 445]
Signal (peptides that bind to 23K21 and 8I10) (HuM2e antibody 23K12): 977 | Signal (peptides that bind to Z3G1) [1]: 2506

346 (SLLMEVETPIRNEWGCRCNDSSD; epitope peptide) [compound 346]
Signal (peptides that bind to 23K21 and 8I10) (HuM2e antibody 23K12): 1616 | Signal (peptides that show specific binding to Z3G1) [1]: 2477

538 (LLLTEVETPIRNEWGCRCNDSSD; epitope peptide) [compound 538]
Signal (peptides that bind to 23K21 and 8I10) (HuM2e antibody 23K12): 950 | Signal (peptides that show specific binding to Z3G1) [1]: 1399

564 (SLLTEVELPIRNEWGCRCNDSSD; epitope peptide) [compound 564]
Signal (peptides that bind to 23K21 and 8I10) (HuM2e antibody 23K12): 886 | Signal (peptides that show specific binding to Z3G1) [1]: 2407

614 (SLLTEVETVIRNEWGCRCNDSSD; epitope peptide) [compound 614]
Signal (peptides that bind to 23K21 and 8I10) (HuM2e antibody 23K12): 810 | Signal (peptides that show specific binding to Z3G1) [1]: 2264

629 (SLLTEVMTPIRNEWGCRCNDSSD; epitope peptide) [compound 629]
Signal (peptides that bind to 23K21 and 8I10) (HuM2e antibody 23K12): 783 | Signal (peptides that show specific binding to Z3G1) [1]: 2331

Reference: patent publication US8932597B2 (priority 2008, dated 2015)
